In this experiment the target is human RIP1 kinase domain (2-375) (Homo sapiens (Human), UniProt Q13546). Kind of experiment: biochemical. Type of experiment: biochemical. Particulars: 50 uM ATP, read-out: Ki. The method, then: Example 794: RIP1 Kinase Inhibition Assays (Biochemical Assay)
The compounds of the present invention were tested for their capacity to inhibit RIP1K activity as described below.
The ability of the receptor interacting protein kinase (RIPK1) to catalyze the hydrolysis of adenosine-5′-triphosphate (ATP) is monitored using the Transcreener ADP (adenosine-5′-diphosphate) assay (BellBrook Labs). Purified human RIP1 kinase domain (2-375) (50 nM) derived from a baculovirus-infected insect cell expression system is incubated with test compounds for 2 hours in 50 mM Hepes buffer (pH 7.5) containing 30 mM MgCl2, 1 mM dithiothreitol, 50 uM ATP, 0.002% Brij-35, and 0.5% dimethyl sulfoxide (DMSO). […] The tracer bound to the antibody is displaced by the ADP generated during the RIP1K reaction, which causes a decrease in fluorescence polarization that is measured by laser excitation at 633 nm with a FP microplate reader M1000. Fractional activity was plotted against test article concentration. Using Genedata Screener software (Genedata; Basel, Switzerland), the data were fit to the tight-binding apparent inhibition constant (Ki^app) Morrison equation [Williams, J. W. and Morrison, J. F. (1979) The kinetics of reversible tight-binding inhibition. Methods Enzymol 63: 437-67]. The following equation was used to calculate fractional activity and Ki^app:
[formula] where [E]T and [I]T are the total concentrations of active enzyme and test article, respectively.
“Method” in the first column of each table refers to the synthetic method(s) used to prepare each compound as shown in the Examples above. In certain examples, chiral column retention times (min) are provided for certain stereoisomers.

Where [1] appears, read: tight-binding apparent inhibition constant, human RIP1 kinase domain (2-375) 50 nM, 2 hours.
[2] abbreviates: Table 5, apparent Ki (Morrison tight-binding fit), 50 nM RIP1 kinase domain, 2 hours incubation.

pKi: −log10 of the molar value. Read-outs that look alike come from different tables or passages of the source.

human RIP1 kinase domain (2-375), sequence (Q13546 2-375): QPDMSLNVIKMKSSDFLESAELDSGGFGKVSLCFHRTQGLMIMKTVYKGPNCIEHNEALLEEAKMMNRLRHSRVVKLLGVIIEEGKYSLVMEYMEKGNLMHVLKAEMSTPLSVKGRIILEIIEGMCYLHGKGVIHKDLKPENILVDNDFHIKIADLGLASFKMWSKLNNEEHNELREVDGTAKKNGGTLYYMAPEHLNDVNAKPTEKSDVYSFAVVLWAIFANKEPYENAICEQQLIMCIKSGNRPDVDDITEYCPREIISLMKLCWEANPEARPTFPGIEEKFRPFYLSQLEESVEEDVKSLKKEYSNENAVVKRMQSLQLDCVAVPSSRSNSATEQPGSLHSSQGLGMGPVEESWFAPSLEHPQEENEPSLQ

Regarding `CN1C(=O)[C@@H](NC(=O)c2ncn(Cc3ncccc3Cl)n2)CCn2nccc21` (racemic) [Example 656, 1-[(3-chloro-2-pyridyl)methyl]-N-[rac-(6S)-4-methyl-5-oxo-7,8-dihydro-6H-pyrazolo[1,5-a][1,3]diazepin-6-yl]-1,2,4-triazole-3-carboxamide], the pKi under setting [1] was 7.21. Consider `C[C@@H](c1ccc(F)cc1)n1cnc(C(=O)N[C@H]2CCn3nc(C4CC4)cc3N(C)C2=O)n1` (racemic) [Example 670, N-[rac-(6S)-2-cyclopropyl-4-methyl-5-oxo-7,8-dihydro-6H-pyrazolo[1,5-a][1,3]diazepin-6-yl]-1-[rac-(1S)-1-(4-fluorophenyl)ethyl]-1,2,4-triazole-3-carboxamide], for which the pKi under setting [1] is 7.58. Same read-out and setting: the value for `CN1C(=O)[C@@H](NC(=O)c2nnc(Cc3ccccc3)[nH]2)CCn2nc([C@H]3CC3(F)F)cc21` (racemic) [Example 672, 5-benzyl-N-[rac-(6S)-4-methyl-5-oxo-2-[rac-(1R)-2,2-difluorocyclopropyl]-7,8-dihydro-6H-pyrazolo[1,5-a] [1,3]diazepin-6-yl]-4H-1,2,4-triazole-3-carboxamide] was 7.25; that for `CN1C(=O)[C@H](NC(=O)c2nnc(Cc3ccccc3)[nH]2)CCn2nc([C@H]3CC3(F)F)cc21` (racemic) [Example 673, 5-benzyl-N-[rac-(6R)-4-methyl-5-oxo-2-[rac-(1R)-2,2-difluorocyclopropyl]-7,8-dihydro-6H-pyrazolo[1,5-a] [1,3]diazepin-6-yl]-4H-1,2,4-triazole-3-carboxamide] was 7.39; that for `CN1C(=O)[C@H](NC(=O)c2ncn(Cc3ccccc3)n2)CCn2nc([C@H]3CC3(F)F)cc21` (racemic) [Example 674, 1-benzyl-N-[rac-(6R)-4-methyl-5-oxo-2-[rac-(1R)-2,2-difluorocyclopropyl]-7,8-dihydro-6H-pyrazolo[1,5-a] [1,3]diazepin-6-yl]-1,2,4-triazole-3-carboxamide] was 5.40. On the same count and under the same terms, the value for `C[C@H](c1ccc(F)cc1)n1cnc(C(=O)N[C@H]2CCn3nc(C4CC4)cc3N(C)C2=O)n1` (racemic) [Example 676, N-[rac-(6S)-2-cyclopropyl-4-methyl-5-oxo-7,8-dihydro-6H-pyrazolo[1,5-a][1,3]diazepin-6-yl]-1-[rac-(1R)-1-(4-fluorophenypethyl]-1,2,4-triazole-3-carboxamide] was 5.51; that for `CN1C(=O)[C@@H](NC(=O)c2ncn(Cc3ccc(Cl)cc3)n2)CCn2nc(C3CC3)cc21` (racemic) [Example 677, 1-[(4-chlorophenyl)methyl]-N-[rac-(6S)-2-cyclopropyl-4-methyl-5-oxo-7,8-dihydro-6H-pyrazolo[1,5-a][1,3]diazepin-6-yl]-1,2,4-triazole-3-carboxamide] was 8.12; that for `CCC[C@@]1(C)OCc2cnc(C(=O)N[C@H]3COc4ccccc4N(C)C3=O)nc21` (racemic) [Example 684, rac-(7R)-7-methyl-7-propyl-N-[rao-(3S)-5-methyl-4-oxo-2,3-dihydro-1,5-benzoxazepin-3-yl]-5H-furo[3,4-d]pyrimidine-2-carboxamide] was 6.79. Consider `CC[C@]1(C)OCc2cnc(C(=O)N[C@H]3COc4ccccc4N(C)C3=O)nc21` (racemic) [Example 685, rac-(7S)-7-ethyl-7-methyl-N-[rac-(3S)-5-methyl-4-oxo-2,3-dihydro-1,5-benzoxazepin-3-yl]-5H-furo[3,4-d] pyrimidine-2-carboxamide], for which the pKi under setting [1] was 7.67. Regarding `Cc1cc2n(n1)CC[C@H](NC(=O)c1ncc3c(n1)[C@@](C)(CC(F)(F)F)OC3)C(=O)N2C` (racemic) [Example 686, rac-(7R)-7-methyl-N-[rac-(6S)-2,4-dimethyl-5-oxo-7,8-dihydro-6H-pyrazolo[1,5-a][1,3]diazepin-6-yl]-7-(2,2,2-trifluoroethyl)-5H-furo[3,4-d]pyrimidine-2-carboxamide], under setting [1], the pKi was 5.96.

Take `CC[C@@]1(C)OCc2cnc(C(=O)N[C@H]3CCn4nc(C)cc4N(C)C3=O)nc21` (racemic) [Example 687, rac-(7R)-7-ethyl-7-methyl-N-[rac-(6S)-2,4-dimethyl-5-oxo-7,8-dihydro-6H-pyrazolo[1,5-a][1,3]diazepin-6-yl]-5H-furo[3,4-d]pyrimidine-2-carboxamide]: the pKi under setting [1] is 6.60. On the same count and under the same terms, under `CN1C(=O)[C@@H](NC(=O)c2ncc3c(n2)[C@](C)(CC(F)(F)F)OC3)COc2ccccc21` (racemic) [Example 688, rac-(7S)-7-methyl-N-[rac-(3 S)-5-methyl-4-oxo-2,3-dihydro-1,5-benzoxazepin-3-yl]-7-(2,2,2-trifluoroethyl)-5H-furo[3,4-d]pyrimidine-2-carboxamide] stands 7.36; under `Cc1cc2n(n1)CC[C@H](NC(=O)c1ncc3c(n1)[C@](C)(CC(F)(F)F)OC3)C(=O)N2C` (racemic) [Example 689, rac-(75)-7-methyl-N-[rac-(6S)-2,4-dimethyl-5-oxo-7,8-dihydro-6H-pyrazolo[1,5-a][1,3diazepin-6-yl]-7-(2,2,2-trifluoroethyl)-5H-furo[3,4-d]pyrimidine-2-carboxamide], 6.75; under `CC[C@]1(C)OCc2cnc(C(=O)N[C@H]3CCn4nc(C)cc4N(C)C3=O)nc21` (racemic) [Example 690, rac-(7S)-7-ethyl-7-methyl-N-[rac-(6S)-2,4-dimethyl-5-oxo-7,8-dihydro-6H-pyrazolo [1,5-a][1,3]diapepin-6-yl]-5H-furo[3,4-d]pyrimidine-2-carboxamide], 5.93. For the compound `CN1C(=O)[C@@H](NC(=O)c2ncc3c(n2)[C@@](C)(CC(F)(F)F)OC3)COc2ccccc21` (racemic) [Example 691, rac-(7R)-7-methyl-N-[rac-(3S)-5-methyl-4-oxo-2,3-dihydro-1,5-benzoxazepin-3-yl]-7-(2,2,2-trifluoroethyl)-5H-furo[3,4-d]pyrimidine-2-carboxamide], under setting [1], the pKi is 7.64.

Turning to `CN1C(=O)[C@@H](NC(=O)c2ncc3c(n2)[C@@]2(CCCOC2)OC3)COc2ccccc21` (racemic) [Example 692, rac-(7R)-N-[rac-(3S)-5-methyl-4-oxo-2,3-dihydro-1,5-benzoxazepin-3-yl]spiro[5H-furo[3,4-d]pyrimidine-7,3′-tetrahydropyran]-2-carboxamide], the pKi under setting [1] was 6.95. On the same count and under the same terms, under `Cc1cn2c(n1)N(C)C(=O)[C@H](NC(=O)c1ncn(Cc3ccccc3)n1)CC2` (racemic) [Example 693, 1-benzyl-N-[rac-(7R)-2,9-dimethyl-8-oxo-6,7-dihydro-5H-imidazo[1,2-a][1,3]diazepin-7-yl]-1,2,4-triazole-3-carboxamide] stands 7.52.

Consider `CN1C(=O)[C@@H](NC(=O)c2ncc3c(n2)[C@]2(CCOC2)OC3)COc2ccccc21` (racemic) [Example 694, rac-(7S)-N-[rac-(3S)-5-methyl-4-oxo-2,3-dihydro-1,5-benzoxazepin-3-yl]spiro[5H-furo[3,4-d]pyrimidine-7,3′-tetrahydrofuran]-2-carboxamide], for which, under setting [1], the pKi is 6.76. Consider `CN1C(=O)[C@@H](NC(=O)c2nc3n(n2)CCO[C@H]3c2ccccc2)COc2ccccc21` (racemic) [Example 695, rac-(8S)-8-phenyl-N-[rac-(3S)-5-methyl-4-oxo-2,3-dihydro-1,5-benzoxazepin-3-yl]-6,8-dihydro-5H-[1,2,4] triazolo[5,1-c][1,4]oxazine-2-carboxamide], for which the negative logarithm of the Ki (pKi) under setting [1] was 6.16. `CN1C(=O)[C@@H](NC(=O)c2ncc3c(n2)[C@]2(CCCOC2)OC3)COc2ccccc21` (racemic) [Example 696, rac-(75)-N-[rac-(3S)-5-methyl-4-oxo-2,3-dihydro-1,5-benzoxazepin-3-yl]spiro[5H-furo[3,4-d]pyrimidine-7,3′-tetrahydropyran]-2-carboxamide]: the negative-log Ki (pKi) under setting [1] was 6.92. Consider `CC(C)Cn1cc(-c2cc3n(n2)CCC(NC(=O)c2ncn(Cc4ccccc4)n2)C(=O)N3C)cn1` (racemic) [Example 699, 1-benzyl-N-[2-(1-isobutylpyrazol-4-yl)-4-methyl-5-oxo-7,8-dihydro-6H-pyrazolo[1,5-a][1,3]diazepin-6-yl]-1,2,4-triazole-3-carboxamide], for which, under setting [2], the pKi is 7.28. Still for that read-out and setting: the value for `CN1C(=O)[C@@H](NC(=O)c2cc3c(Br)cccc3cn2)CCn2nccc21` (racemic) [Example 700, 5-bromo-N-[rac-(6S)-4-methyl-5-oxo-7,8-dihydro-6H-pyrazolo[1,5-a][1,3]diazepin-6-yl]isoquinoline-3-carboxamide] was 6.35; that for `Cc1cc2n(n1)CC[C@H](NC(=O)c1cc3c(Br)cccc3cn1)C(=O)N2C` (racemic) [Example 701, 5-bromo-N-[rac-(6S)-2,4-dimethyl-5-oxo-7,8-dihydro-6H-pyrazolo[1,5-a][1,3]diazepin-6-yl]isoquinoline-3-carboxamide] was 6.21. In the case of `Cc1cc2n(n1)CC[C@H](NC(=O)c1cc3c(-c4ccccc4)cccc3cn1)C(=O)N2C` (racemic) [Example 702, 5-phenyl-N-[rac-(6S)-2,4-dimethyl-5-oxo-7,8-dihydro-6H-pyrazolo[1,5-a][1,3]diazepin-6-yl]isoquinoline-3-carboxamide], the pKi under setting [2] was 7.48.

As usually defined, the pKi is the negative decadic logarithm of the Ki, by convention in mol/L.

The values are drawn from US10988459B2 (priority 2015, dated 2021).
